# In ChEMBL document CHEMBL1201862, “PubChem BioAssay data set” (2004):
# Values joined by “and” are separate entries in the source; they are usually repeats but may differ in a detail not shown here. Identical values can stand only once. Active and inactive are the calls of the source. Rule as the data show it, for most assays here: actives have a measured EC50 and inactives only a lower limit.
# Assays:
# Paired box protein Pax-8 = Paired box protein Pax-8 (Homo sapiens, UniProt Q06710); assay: PAX8 transcriptional activity inhibition in RMG-I – RMG-I cells, luciferase, cherry-pick, dose response (AID 687027); assay type: functional, cell-based;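 also: luciferase reporter driven by Pax8 target thyroperoxidase promoter measured by SteadyGlo luminescence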
# [1] = molecular target: T1, Heat shock factor protein 1 (Mus musculus, UniProt P38532); assay: enhancement of HSF1-driven luciferase signal – cell-based, NIH3T3, luminescence, dose retest, confirmation (AID 435004); assay type: functional;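 also: stress induced by proteasome inhibitor MG132 added 30 min after compound; luciferase reporter driven by HSF1 response element in NIH3T3 cells; actives raise luminescence as potentiators of the MG132 stress response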
# T1 sequence (P38532 whole entry): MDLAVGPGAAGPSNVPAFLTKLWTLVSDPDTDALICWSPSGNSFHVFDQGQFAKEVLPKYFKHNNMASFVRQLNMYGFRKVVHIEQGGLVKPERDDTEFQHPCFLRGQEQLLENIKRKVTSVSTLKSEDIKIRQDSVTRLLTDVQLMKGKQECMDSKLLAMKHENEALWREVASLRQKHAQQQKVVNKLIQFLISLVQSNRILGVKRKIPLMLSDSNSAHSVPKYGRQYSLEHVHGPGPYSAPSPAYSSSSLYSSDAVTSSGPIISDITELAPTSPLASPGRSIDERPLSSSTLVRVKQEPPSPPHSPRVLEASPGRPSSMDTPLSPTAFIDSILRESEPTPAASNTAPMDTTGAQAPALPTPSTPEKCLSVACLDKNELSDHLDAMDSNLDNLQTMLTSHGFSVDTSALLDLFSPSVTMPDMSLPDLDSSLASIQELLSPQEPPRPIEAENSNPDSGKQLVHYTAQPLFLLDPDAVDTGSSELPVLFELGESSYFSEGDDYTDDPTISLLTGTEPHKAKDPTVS
# [2] = viability of uninfected HEp-2 cells – cell-based, HTS, cytotoxicity control for RSV inhibitor project, dose response (AID 2410); assay type: functional; settings: human respiratory syncytial virus
# Cytochrome P450 2D6 = Cytochrome P450 2D6 (Homo sapiens, UniProt P10635);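 also: CYP2D6 member of a cytochrome P450 panel assay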
# [3] = tested on: Streptococcus sp. 'group A'; assay: Streptococcus pyogenes SK(-)GAS viability under kanamycin – luminescence, BacTiterGlo, confirmation, counter-screen for streptokinase expression inhibitor project, dose response (AID 1900); assay type: functional, organism-based
# Streptokinase A = molecular target: T2, Streptokinase A (Streptococcus pyogenes serotype M1, UniProt P10520); assay: viability-normalized secreted streptokinase activity reduction – plasminogen activation absorbance, OD405, dose response (AID 1914); assay type: functional, Streptococcus pyogenes M1 GAS;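 also: secreted streptokinase activity via plasminogen activation per viability signal from cell pellet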
# T2 sequence (P10520 whole entry): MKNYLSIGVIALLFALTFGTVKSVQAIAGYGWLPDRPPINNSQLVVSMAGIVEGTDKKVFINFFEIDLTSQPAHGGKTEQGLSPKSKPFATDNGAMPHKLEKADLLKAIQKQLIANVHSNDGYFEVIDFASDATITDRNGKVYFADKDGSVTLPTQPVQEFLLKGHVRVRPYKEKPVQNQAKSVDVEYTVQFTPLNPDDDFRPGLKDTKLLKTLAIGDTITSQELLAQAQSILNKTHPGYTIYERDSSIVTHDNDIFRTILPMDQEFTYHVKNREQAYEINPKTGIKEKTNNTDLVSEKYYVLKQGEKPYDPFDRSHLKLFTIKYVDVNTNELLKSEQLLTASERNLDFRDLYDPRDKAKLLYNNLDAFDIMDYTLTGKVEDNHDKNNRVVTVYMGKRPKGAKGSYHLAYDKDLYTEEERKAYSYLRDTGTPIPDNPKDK
# Streptococcus = assay: GAS UMAA2166 growth inhibition – luminescence, BacTiterGlo, counter-screen for streptokinase expression inhibitor project, dose response (AID 1915); assay type: functional, organism-based;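 also: potency for reduction of bacterial viability or growth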
# [4] = molecular target: T1, Heat shock factor protein 1; assay: decrease of HSF1-responsive luciferase luminescence – cell-based, NIH3T3, dose retest, confirmation (AID 2382); assay type: functional;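 also: NIH3T3 fibroblasts with HSF1-driven luciferase reporter stressed by proteasome inhibitor MG132; luminescence from HSF1-driven luciferase expression after 8 hours of MG132 stress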
# [5] = Luminescence Cell-Based Dose Confirmation HTS to Identify Activators of 5'UTR Stem-Loop Driven Alpha-Synuclein mRNA Translation in H4 Neuroglioblastoma Cells. [Related pubchem assays: 1829 (Project Summary), 1814 (Primary HTS)]; assay type: functional
# H4 = assay: Luminescence Cell-Based Dose Response HTS to Identify Activators of 5'UTR Stem-Loop Driven Prion Protein mRNA Translation in H4 Neuroglioblastoma Cells. [Related pubchem assays: 1829 (Project Summary), 1814 (Primary HTS)]; assay type: functional; settings: Homo sapiens
# [6] = NIH-3T3 fibroblast cytotoxicity, dose response, cytotoxicity control, cell-based, fluorescence, Alamar Blue, secondary assay (AID 2327); assay type: functional;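 also: NIH-3T3 mouse fibroblasts cultured with fluconazole at 8 µg/mL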
# [7] = Luminescence Cell-Based Dose Response HTS to Identify Activators of Luciferase Translation or Activity in H4 […] Cells. [Related pubchem assays: 1829 (Project Summary), 1814 (Primary HTS)]; assay type: functional
# Cytochrome P450 1A2 = molecular target: T3, Cytochrome P450 1A2 (Homo sapiens, UniProt P05177);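 also: PubChem cytochrome P450 panel assay, CYP1A2 panel member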
# T3 sequence (P05177 whole entry): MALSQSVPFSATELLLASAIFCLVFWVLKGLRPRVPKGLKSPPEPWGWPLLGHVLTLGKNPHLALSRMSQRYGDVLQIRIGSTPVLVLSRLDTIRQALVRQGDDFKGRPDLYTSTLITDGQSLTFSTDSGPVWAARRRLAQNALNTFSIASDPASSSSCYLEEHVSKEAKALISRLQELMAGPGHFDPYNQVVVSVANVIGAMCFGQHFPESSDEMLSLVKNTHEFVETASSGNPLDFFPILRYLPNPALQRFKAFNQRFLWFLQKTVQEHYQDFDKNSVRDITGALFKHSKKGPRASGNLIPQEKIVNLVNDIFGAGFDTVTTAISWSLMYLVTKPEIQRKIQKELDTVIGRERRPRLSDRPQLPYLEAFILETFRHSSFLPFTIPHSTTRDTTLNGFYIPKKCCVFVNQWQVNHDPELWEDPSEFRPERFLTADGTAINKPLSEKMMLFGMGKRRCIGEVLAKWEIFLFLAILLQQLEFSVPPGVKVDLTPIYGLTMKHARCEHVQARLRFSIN
# Cytochrome P450 2C9 = Cytochrome P450 2C9 (Homo sapiens, UniProt P11712)
# Protein skinhead-1 = molecular target: T4, Protein skinhead-1 (Caenorhabditis elegans, UniProt P34707); assay type: functional
# T4 sequence (P34707 whole entry): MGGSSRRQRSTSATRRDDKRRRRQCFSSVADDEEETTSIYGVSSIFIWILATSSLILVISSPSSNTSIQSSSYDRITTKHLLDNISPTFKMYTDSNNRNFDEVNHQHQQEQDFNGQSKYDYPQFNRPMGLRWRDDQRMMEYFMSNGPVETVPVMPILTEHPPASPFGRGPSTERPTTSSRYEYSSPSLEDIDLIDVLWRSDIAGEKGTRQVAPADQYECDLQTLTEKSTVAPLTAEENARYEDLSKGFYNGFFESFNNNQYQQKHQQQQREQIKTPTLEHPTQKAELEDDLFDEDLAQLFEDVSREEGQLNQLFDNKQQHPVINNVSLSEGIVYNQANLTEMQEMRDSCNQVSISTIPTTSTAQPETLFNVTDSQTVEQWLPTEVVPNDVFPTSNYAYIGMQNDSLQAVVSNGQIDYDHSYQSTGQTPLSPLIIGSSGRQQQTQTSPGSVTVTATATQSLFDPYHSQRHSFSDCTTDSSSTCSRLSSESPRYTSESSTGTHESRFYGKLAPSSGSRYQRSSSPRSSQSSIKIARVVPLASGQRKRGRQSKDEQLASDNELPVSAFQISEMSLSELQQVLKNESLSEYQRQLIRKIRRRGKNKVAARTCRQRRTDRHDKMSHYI
# Cytochrome P450 3A4 = Cytochrome P450 3A4 (Homo sapiens, UniProt P08684);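 also: CYP3A4 tested as one member of a cytochrome P450 panel screen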
# Sequence of Cytochrome P450 3A4 (P08684 whole entry): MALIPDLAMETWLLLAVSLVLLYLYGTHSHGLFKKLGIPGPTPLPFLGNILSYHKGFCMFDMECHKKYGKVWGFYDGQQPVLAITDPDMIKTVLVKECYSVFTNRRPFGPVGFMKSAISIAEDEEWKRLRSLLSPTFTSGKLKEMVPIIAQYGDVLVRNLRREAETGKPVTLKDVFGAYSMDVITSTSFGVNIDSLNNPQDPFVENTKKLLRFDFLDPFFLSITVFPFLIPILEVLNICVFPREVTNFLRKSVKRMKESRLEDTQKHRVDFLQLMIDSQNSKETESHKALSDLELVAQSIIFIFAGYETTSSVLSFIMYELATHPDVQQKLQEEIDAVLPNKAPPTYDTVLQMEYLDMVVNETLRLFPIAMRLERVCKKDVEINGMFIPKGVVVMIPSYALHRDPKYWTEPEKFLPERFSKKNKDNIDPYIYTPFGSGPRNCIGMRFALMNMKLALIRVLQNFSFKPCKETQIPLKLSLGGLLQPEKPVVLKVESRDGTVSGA
# Sequence of Paired box protein Pax-8 (Q06710 whole entry): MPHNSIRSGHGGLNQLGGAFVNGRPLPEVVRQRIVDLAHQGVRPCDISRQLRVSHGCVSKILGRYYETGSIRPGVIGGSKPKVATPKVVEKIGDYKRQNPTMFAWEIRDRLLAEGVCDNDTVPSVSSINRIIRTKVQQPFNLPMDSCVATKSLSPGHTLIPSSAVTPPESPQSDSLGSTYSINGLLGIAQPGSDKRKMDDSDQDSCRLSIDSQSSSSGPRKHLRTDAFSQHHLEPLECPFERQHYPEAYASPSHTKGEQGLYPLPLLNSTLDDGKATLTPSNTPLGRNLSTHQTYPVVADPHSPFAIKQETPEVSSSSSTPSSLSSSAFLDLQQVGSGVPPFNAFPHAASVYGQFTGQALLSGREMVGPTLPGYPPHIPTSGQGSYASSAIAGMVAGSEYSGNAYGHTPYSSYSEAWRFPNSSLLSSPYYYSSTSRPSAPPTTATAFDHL
# Sequence of Cytochrome P450 2D6 (P10635 whole entry): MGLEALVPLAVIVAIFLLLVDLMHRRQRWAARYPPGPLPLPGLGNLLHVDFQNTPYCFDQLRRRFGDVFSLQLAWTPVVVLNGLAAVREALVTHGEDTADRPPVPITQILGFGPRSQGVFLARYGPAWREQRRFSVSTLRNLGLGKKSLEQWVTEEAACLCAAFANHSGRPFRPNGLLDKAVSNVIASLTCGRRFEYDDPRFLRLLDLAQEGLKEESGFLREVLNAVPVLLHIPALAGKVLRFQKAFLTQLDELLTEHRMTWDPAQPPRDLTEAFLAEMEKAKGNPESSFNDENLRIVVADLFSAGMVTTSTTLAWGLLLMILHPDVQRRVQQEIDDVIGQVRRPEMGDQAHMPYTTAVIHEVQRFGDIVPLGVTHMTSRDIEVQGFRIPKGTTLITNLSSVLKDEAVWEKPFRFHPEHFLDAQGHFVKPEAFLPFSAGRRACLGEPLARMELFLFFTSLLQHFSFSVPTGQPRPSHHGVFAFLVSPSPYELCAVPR
# Sequence of Cytochrome P450 2C9 (P11712 whole entry): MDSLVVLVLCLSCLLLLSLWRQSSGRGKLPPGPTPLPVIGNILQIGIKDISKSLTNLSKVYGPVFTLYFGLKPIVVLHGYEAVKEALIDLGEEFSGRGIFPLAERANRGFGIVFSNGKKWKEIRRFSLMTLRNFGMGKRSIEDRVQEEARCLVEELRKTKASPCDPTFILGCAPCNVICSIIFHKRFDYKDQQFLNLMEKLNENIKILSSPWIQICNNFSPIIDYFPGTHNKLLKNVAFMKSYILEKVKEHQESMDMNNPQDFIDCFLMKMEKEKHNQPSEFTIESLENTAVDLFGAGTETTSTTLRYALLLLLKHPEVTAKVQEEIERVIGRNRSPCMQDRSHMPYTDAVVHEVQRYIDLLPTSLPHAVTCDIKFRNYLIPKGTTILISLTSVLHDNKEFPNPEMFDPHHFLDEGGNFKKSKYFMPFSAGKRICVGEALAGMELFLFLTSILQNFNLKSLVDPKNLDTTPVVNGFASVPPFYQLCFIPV
smiles,measurement,setting,value
CCCCCCN(C(=O)CCCN1C(=O)NC(c2ccc(-c3ccccc3)cc2)C(C(=O)OCc2ccccc2)=C1C)C(C)C(=O)NCCCC (configuration not stated),AC50,Paired box protein Pax-8,12.2 µM (active)
C[C@@H]1CCCCO[C@H](CN(C)Cc2ccccc2)[C@H](C)CN([C@H](C)CO)C(=O)c2cc(NC(=O)Nc3ccc(C(F)(F)F)cc3)ccc2O1,AC50,Paired box protein Pax-8,5.05 µM (active)
Cc1nc(Sc2ccc(Br)cc2)c(C#N)c(C)c1[N+](=O)[O-],EC50,[1],125 µM (active)
CCOC(=O)/C=C/C(=O)N1CCc2ccccc21,EC50,[1],24.7 µM (active)
CCCC(=O)O/N=C(\c1ccccc1)c1ccncc1,EC50,[1],> 260 µM (inactive)
"N=C(N)NC(=O)c1nc(Cl)c(N2CCCCCC2)nc1N [N,N-HEXAMETHYLENEAMILORIDE]",CC50,[2],10.5 µM (active)
same,AC50,Cytochrome P450 2D6,39.8 µM (inconclusive)
CCOC(=O)c1cccnc1SCC(=O)NC(C)CC (configuration not stated),EC50,[3],> 150 µM (not active)
same,EC50,Streptokinase A,> 150 µM (not active)
same,EC50,Streptococcus,> 150 µM (not active)
C/C(=N\NC(=O)c1cc2ccccc2cc1O)c1ccc2c(c1)OCO2,EC50,[3],3.73 µM (active)
same,EC50,Streptokinase A,6.65 µM (active)
same,EC50,Streptococcus,21.9 µM (active)
OCCN(Cc1ccccc1)Cc1cccc(Cl)c1Cl,EC50,[4],> 195 µM (not active)
same,AC50,Cytochrome P450 2D6,1.58 µM (inconclusive)
Cc1[nH]c2ccccc2c1C(=O)/C=C/c1ccccc1Cl,EC50,[5],7.39 µM (active)
same,EC50,H4,10.1 µM (active)
CCOC(=O)c1cc2c(=O)n3ccccc3nc2n(CCOC)/c1=N\C(=O)c1ccncc1,EC50,[6],115 µM (active)
O=C(c1ccccc1)N1CCN2C(=O)c3ccccc3C12c1ccc(Cl)cc1 (configuration not stated),EC50,[5],> 120 µM (not active)
same,EC50,[7],34.9 µM (active)
same,EC50,H4,15.4 µM (active)
CCOc1ccc(CN(C)C(=O)CNC(=O)c2ccc3ccccc3c2)cc1OC,EC50,[1],> 260 µM (inactive)
N=C(c1ccc2ccccc2c1)c1ccccc1Cc1ccccc1,AC50,Cytochrome P450 2D6,3.16 µM (inconclusive)
same,AC50,Cytochrome P450 1A2,0.501 µM (inconclusive)
same,AC50,Cytochrome P450 2C9,7.94 µM (inconclusive)
Cn1ccnc1CN1CCCCC1C(=O)Nc1ccc(Oc2cccnc2)cc1 (configuration not stated),EC50,[5],> 120 µM (not active)
same,EC50,[7],> 120 µM (not active)
same,EC50,H4,> 120 µM (not active)
Cc1ccc(S(=O)(=O)N/N=C2/CC(c3ccccc3)Oc3ccccc32)cc1[N+](=O)[O-] (configuration not stated),EC50,[5],15.9 µM (active)
same,EC50,[7],> 120 µM (not active)
same,EC50,H4,13.8 µM (active)
COc1ccc(C(=O)N(C)CC(O)c2ccccc2)cc1OC1CCN(C(C)=O)CC1 (configuration not stated),EC50,[1],> 260 µM (inactive)
COc1ccccc1CCn1c(=O)c(-c2ccccc2)nc2cncnc21,AC50,Cytochrome P450 2D6,12.6 µM (inconclusive)
N#C/C(=C\c1cn(Cc2ccccc2)c2ccccc12)C(=O)NCc1ccco1,EC50,[1],35.6 µM (active)
C[C@@H]1CCCCO[C@@H](CN(C)Cc2ccc(Cl)c(Cl)c2)[C@H](C)CN([C@H](C)CO)C(=O)c2cc(NC(=O)Nc3ccc(C(F)(F)F)cc3)ccc2O1,AC50,Paired box protein Pax-8,2.39 µM (active)
O=C(COc1ccc(Cl)cc1)NC1CCSC1=O (configuration not stated),EC50,[6],> 160 µM (inactive)
Cc1ccc(S(=O)(=O)N(C)C[C@H]2Oc3ccc(NC(=O)Cc4ccccc4)cc3C(=O)N([C@H](C)CO)C[C@@H]2C)cc1,AC50,Paired box protein Pax-8,29.8 µM (active)
Cc1nn(-c2ccccc2)c(Cl)c1/C=N\NC(=O)c1cnccn1,EC50,[5],23.6 µM (active)
same,EC50,[7],14 µM (active)
same,EC50,H4,15.3 µM (active)
C[C@H](N)Cc1c[nH]c2ccc(O)cc12,AC50,Cytochrome P450 2D6,15.8 µM (inconclusive) and 39.8 µM (inconclusive)
COCCC/N=C(\c1ccco1)n1c(=S)nc(-c2ccco2)n(CCCOC)c1=S,EC50,[5],11.9 µM (active)
same,EC50,[7],11.6 µM (active)
same,EC50,H4,> 120 µM (not active)
Cc1ccc(NC(=O)c2c(Cl)n(C)c3ccccc23)cc1,EC50,[1],31.5 µM (active)
C=CCSc1ncc(-c2ccccc2)cn1,EC50,[5],25.3 µM (active)
same,EC50,[7],16 µM (active)
same,EC50,H4,24.5 µM (active)
same,IC50,Protein skinhead-1,11.4 µM (active)
CSc1ccc(Cl)c(C(=O)OCC(=O)N(C)CCC#N)c1,EC50,[1],> 260 µM (inactive)
COc1cccc(Cn2c(=O)c(-c3ccc(Cl)cc3)nc3cnc(N4CCNCC4)nc32)c1,AC50,Cytochrome P450 2D6,39.8 µM (inconclusive)
same,AC50,Cytochrome P450 3A4,15.8 µM (inconclusive)
Fc1ccc(-c2nc(-c3cnccn3)no2)c(Cl)c1,EC50,[1],> 260 µM (inactive)
same,IC50,Protein skinhead-1,> 100 µM (inactive)
CN1CC[C@@]2(CCN3CCc4c(oc5ccccc45)[C@@H]3C2)N(C)C1=O,AC50,Cytochrome P450 2D6,31.6 µM (inconclusive)
same,AC50,Cytochrome P450 3A4,12.6 µM (inconclusive)
N#Cc1ccc2nc(-c3ccc(CN4CCC(n5c(O)nc6ccccc65)CC4)cc3)c(-c3ccccc3)nc2c1,AC50,Paired box protein Pax-8,8.95 µM (active)
